Reference: the kinase profiling compilation of Christmann-Franck et al. (2016)

How the values were obtained:
Assay in all cases: radiometric filter-binding kinase assay, Kinase HotSpot
Details in all cases: compound 0.5 µM; ATP 10 µM
[1] = target: WEE1 (human) (UniProt P30291)
[2] = target: HIPK2 (human) (UniProt Q9H2X6)
[3] = target: CDK5 CDK5R1 p25 (human) (UniProt Q00535+Q15078)
[4] = target: ACVRL1 (human) (UniProt P37023)
[5] = target: HCK (human) (UniProt P08631)
[6] = target: CDK1 CCNB1 (human) (UniProt P06493+P14635)
[7] = target: CDK4 CCND3 (human) (UniProt P30281+P11802)
[8] = target: CSNK2A2 (human) (UniProt P19784)
[9] = target: SRMS (human) (UniProt Q9H3Y6)
SRMS (human), sequence (Q9H3Y6 whole entry, looked up): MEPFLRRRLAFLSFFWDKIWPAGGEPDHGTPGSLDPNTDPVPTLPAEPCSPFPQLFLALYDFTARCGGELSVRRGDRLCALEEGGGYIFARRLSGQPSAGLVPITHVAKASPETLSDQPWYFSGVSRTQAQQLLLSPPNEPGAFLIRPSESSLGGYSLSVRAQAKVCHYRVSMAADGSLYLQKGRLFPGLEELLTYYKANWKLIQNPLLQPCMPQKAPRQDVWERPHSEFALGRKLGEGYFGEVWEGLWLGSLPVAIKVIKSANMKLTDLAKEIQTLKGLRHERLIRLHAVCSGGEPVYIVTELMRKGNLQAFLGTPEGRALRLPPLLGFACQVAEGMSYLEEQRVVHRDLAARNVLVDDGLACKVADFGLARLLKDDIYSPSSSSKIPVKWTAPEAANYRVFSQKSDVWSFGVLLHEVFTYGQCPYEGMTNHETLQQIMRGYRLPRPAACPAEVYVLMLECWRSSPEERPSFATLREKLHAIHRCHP

[10] = target: TBK1 (human) (UniProt Q9UHD2)
[11] = target: NUAK2 (human) (UniProt Q9H093)
[12] = target: ROS1 (human) (UniProt P08922)
[13] = target: NTRK1 (human) (UniProt P04629)
[14] = target: PNCK (human) (UniProt Q6P2M8)
[15] = target: VRK1 (human) (UniProt Q99986)
[16] = target: GRK4 (human) (UniProt P32298)
[17] = target: RPS6KA4 KD2 (human) (UniProt O75676)
RPS6KA4 KD2 (human), sequence (O75676 whole entry, looked up): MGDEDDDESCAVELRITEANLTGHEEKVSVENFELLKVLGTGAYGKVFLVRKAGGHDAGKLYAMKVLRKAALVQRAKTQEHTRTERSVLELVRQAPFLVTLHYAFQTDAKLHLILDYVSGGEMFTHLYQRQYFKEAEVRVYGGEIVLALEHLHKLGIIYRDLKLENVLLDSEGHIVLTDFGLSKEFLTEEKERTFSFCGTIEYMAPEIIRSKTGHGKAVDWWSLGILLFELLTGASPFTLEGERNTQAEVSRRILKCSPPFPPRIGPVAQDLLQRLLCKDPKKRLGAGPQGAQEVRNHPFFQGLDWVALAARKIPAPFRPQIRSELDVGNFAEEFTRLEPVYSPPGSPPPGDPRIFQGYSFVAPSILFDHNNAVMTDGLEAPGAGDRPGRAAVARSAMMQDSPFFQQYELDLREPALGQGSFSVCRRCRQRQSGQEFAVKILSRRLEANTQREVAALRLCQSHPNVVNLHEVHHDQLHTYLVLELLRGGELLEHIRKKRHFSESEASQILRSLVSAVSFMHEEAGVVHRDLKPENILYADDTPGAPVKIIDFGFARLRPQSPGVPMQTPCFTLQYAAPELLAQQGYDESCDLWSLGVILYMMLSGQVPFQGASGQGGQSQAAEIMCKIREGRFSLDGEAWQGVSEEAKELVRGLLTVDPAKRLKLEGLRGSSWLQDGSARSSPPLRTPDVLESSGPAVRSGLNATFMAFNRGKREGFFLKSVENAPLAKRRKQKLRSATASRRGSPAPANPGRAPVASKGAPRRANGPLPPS

[18] = target: AURKA (human) (UniProt O14965)
[19] = target: MAPKAPK3 (human) (UniProt Q16644)
[20] = target: FGFR4 (human) (UniProt P22455)
[21] = target: EPHA1 (human) (UniProt P21709)
[22] = target: MAP3K9 (human) (UniProt P80192)
[23] = target: ULK2 (human) (UniProt Q8IYT8)
[24] = target: RPS6KB2 (human) (UniProt Q9UBS0)
[25] = target: EPHB3 (human) (UniProt P54753)
[26] = target: PRKCE (human) (UniProt Q02156)
PRKCE (human), sequence (Q02156 whole entry, looked up): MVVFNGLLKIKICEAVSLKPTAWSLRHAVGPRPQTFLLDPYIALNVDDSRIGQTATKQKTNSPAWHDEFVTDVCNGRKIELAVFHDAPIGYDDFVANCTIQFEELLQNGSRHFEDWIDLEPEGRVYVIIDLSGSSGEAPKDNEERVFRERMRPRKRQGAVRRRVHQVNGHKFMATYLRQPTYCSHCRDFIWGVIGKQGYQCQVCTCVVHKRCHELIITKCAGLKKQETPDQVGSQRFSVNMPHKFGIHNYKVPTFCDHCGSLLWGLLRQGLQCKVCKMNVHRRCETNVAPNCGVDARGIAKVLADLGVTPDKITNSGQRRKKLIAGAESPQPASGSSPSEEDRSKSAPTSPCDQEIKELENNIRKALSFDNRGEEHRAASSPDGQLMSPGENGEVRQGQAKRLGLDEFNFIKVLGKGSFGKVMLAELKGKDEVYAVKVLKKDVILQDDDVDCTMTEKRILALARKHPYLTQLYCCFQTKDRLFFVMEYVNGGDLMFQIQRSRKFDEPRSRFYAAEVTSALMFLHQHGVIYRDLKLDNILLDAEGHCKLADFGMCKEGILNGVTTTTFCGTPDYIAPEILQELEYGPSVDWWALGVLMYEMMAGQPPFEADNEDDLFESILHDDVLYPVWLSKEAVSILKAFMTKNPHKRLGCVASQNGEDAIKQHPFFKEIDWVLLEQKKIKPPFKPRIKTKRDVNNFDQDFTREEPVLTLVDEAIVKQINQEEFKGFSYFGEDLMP

[27] = target: MET (human) (UniProt P08581)
[28] = target: RPS6KA3 KD1 KD2 (human) (UniProt P51812)
[29] = target: SRPK2 (human) (UniProt P78362)
[30] = target: EPHA2 (human) (UniProt P29317)
EPHA2 (human), sequence (P29317 whole entry, looked up): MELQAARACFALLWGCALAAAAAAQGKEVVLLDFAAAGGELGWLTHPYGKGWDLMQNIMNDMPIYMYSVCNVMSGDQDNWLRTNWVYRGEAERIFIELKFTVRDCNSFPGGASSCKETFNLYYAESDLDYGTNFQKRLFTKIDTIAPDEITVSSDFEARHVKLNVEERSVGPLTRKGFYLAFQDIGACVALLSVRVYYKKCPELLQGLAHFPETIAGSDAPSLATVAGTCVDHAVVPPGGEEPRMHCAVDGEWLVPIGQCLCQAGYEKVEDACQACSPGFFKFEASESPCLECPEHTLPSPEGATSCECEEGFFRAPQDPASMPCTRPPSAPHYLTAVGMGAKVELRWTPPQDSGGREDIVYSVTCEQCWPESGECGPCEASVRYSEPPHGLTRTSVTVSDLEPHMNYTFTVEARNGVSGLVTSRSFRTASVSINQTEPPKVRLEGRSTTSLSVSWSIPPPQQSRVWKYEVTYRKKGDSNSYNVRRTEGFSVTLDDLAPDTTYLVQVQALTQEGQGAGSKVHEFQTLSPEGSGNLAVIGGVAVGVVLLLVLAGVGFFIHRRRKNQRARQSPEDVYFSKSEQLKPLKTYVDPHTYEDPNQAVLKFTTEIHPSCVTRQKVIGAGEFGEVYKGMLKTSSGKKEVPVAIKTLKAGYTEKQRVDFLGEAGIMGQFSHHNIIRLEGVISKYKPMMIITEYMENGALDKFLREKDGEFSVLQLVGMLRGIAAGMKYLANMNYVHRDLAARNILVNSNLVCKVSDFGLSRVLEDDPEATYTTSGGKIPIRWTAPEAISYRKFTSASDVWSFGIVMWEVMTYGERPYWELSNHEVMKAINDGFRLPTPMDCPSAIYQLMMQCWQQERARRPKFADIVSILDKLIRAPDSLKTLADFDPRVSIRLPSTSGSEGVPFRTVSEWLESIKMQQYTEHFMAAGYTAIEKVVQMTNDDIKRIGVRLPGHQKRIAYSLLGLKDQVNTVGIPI

[31] = target: CSNK2A1 (human) (UniProt P68400)
CSNK2A1 (human), sequence (P68400 whole entry, looked up): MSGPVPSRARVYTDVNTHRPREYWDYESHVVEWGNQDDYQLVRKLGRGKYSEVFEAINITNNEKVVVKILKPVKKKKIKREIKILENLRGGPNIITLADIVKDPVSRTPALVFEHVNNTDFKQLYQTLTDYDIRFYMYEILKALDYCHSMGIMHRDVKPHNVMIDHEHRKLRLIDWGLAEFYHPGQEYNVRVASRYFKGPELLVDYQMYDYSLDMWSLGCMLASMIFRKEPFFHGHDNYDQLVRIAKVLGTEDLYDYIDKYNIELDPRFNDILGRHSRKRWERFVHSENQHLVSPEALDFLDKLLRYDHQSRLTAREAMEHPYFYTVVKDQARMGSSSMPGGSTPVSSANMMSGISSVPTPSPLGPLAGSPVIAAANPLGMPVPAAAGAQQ

[32] = target: PKN2 (human) (UniProt Q16513)
[33] = target: ULK1 (human) (UniProt O75385)
[34] = target: CDK2 CCNA2 (human) (UniProt P24941+P20248)
[35] = target: GRK6 (human) (UniProt P43250)
[36] = target: NEK11 (human) (UniProt Q8NG66)
NEK11 (human), sequence (Q8NG66 whole entry, looked up): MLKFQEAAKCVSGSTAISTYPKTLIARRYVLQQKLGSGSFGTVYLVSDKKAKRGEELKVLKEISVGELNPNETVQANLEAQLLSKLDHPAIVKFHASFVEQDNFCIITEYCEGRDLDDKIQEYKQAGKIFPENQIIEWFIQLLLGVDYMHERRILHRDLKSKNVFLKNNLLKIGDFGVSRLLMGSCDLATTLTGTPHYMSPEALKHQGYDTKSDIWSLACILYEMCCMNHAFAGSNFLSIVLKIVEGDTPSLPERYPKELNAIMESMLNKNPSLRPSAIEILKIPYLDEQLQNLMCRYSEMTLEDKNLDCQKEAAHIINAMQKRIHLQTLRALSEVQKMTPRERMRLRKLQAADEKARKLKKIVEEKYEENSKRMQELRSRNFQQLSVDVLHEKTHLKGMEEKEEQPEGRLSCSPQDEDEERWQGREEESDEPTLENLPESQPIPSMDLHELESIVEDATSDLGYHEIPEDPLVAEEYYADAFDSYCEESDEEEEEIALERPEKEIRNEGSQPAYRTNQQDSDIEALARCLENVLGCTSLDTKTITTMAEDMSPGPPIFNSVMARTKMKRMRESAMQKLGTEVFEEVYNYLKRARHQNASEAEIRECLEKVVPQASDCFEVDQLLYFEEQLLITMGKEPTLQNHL

[37] = target: WNK2 (human) (UniProt Q9Y3S1)
[38] = tested on: FLT4 (human), P35916 [Q890H]
[39] = target: PIM1 (human) (UniProt P11309)
PIM1 (human), sequence (P11309 whole entry, looked up): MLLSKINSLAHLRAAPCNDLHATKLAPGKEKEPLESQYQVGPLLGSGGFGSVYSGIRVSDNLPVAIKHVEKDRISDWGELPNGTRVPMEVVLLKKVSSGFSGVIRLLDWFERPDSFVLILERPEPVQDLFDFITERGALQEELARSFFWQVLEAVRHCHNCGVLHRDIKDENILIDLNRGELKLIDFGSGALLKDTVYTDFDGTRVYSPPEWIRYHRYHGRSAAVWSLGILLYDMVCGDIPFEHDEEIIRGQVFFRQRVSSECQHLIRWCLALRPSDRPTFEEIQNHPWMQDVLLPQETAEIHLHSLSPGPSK

[40] = target: CLK4 (human) (UniProt Q9HAZ1)
CLK4 (human), sequence (Q9HAZ1 whole entry, looked up): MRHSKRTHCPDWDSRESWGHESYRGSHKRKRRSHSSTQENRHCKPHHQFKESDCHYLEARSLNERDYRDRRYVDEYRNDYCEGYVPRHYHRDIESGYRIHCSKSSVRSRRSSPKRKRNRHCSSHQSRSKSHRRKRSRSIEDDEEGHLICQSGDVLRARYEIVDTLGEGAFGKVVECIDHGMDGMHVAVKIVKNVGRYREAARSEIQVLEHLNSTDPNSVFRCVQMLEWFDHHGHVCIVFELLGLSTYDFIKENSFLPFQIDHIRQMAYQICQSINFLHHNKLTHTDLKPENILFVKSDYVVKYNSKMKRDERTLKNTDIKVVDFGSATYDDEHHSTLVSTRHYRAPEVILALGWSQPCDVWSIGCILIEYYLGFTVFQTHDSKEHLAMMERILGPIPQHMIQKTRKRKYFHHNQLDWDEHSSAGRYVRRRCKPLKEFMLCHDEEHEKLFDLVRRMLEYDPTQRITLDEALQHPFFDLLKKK

[41] = target: ERBB2 (human) (UniProt P04626)

With `CN(C)S(=O)(=O)c1ccc2c(c1)/C(=C/c1cc3c([nH]1)CCCC3)C(=O)N2` as the compound, how does the residual activity [1] read?
The residual activity was 94.5%.

What about the residual activity [2] of the same compound?
Its residual activity is 98.2%.

What about the residual activity [3] of the same compound?
The residual activity was 72.9%.

And the residual activity [4]?
The residual activity was 102%.

What about the residual activity [5] of the same compound?
The residual activity was 31.6%.

What about the residual activity [6] of the same compound?
The residual activity was 75.4%.

And the residual activity [7]?
Its residual activity is 99.1%.

What about the residual activity [8] of the same compound?
Its residual activity is 92.1%.

What about the residual activity [9] of the same compound?
The residual activity was 104%.

What about the residual activity [10] of the same compound?
Its residual activity is 80.6%.

And the residual activity [11]?
The residual activity was 95.1%.

And the residual activity [12]?
The residual activity was 83.3%.

And the residual activity [13]?
The residual activity was 24.7%.

What about the residual activity [14] of the same compound?
The residual activity was 95.7%.

And the residual activity [15]?
Its residual activity is 104%.

What about the residual activity [16] of the same compound?
Its residual activity is 79.8%.

And the residual activity [17]?
Its residual activity is 104%.

And the residual activity [18]?
The residual activity was 16.1%.

What about the residual activity [19] of the same compound?
The residual activity was 100%.

What about the residual activity [20] of the same compound?
Its residual activity is 92.9%.

And the residual activity [21]?
The residual activity was 94.5%.

And the residual activity [22]?
The residual activity was 74.6%.

And the residual activity [23]?
The residual activity was 26.3%.

What about the residual activity [24] of the same compound?
The residual activity was 92.6%.

And the residual activity [25]?
Its residual activity is 105%.

What about the residual activity [26] of the same compound?
Its residual activity is 94.6%.

What about the residual activity [27] of the same compound?
The residual activity was 92.2%.

What about the residual activity [28] of the same compound?
The residual activity was 70.1%.

What about the residual activity [29] of the same compound?
Its residual activity is 50.3%.

And the residual activity [30]?
Its residual activity is 96.5%.

What about the residual activity [31] of the same compound?
Its residual activity is 105%.

And the residual activity [32]?
Its residual activity is 84.3%.

And the residual activity [33]?
Its residual activity is 6.13%.

And the residual activity [34]?
Its residual activity is 90.6%.

And the residual activity [35]?
Its residual activity is 82.6%.

What about the residual activity [36] of the same compound?
Its residual activity is 82.5%.

And the residual activity [37]?
Its residual activity is 101%.

What about the residual activity [38] of the same compound?
The residual activity was 78.1%.

And the residual activity [39]?
Its residual activity is 101%.

What about the residual activity [40] of the same compound?
Its residual activity is 50.7%.

And the residual activity [41]?
The residual activity was 101%.

How did the residual activity [1] turn out when `Cc1nc(-c2ccccc2)c(-c2ccncc2)o1` was run?
The residual activity was 91.9%.

And the residual activity [2]?
The residual activity was 95.5%.

And the residual activity [3]?
Its residual activity is 97%.

And the residual activity [4]?
Its residual activity is 95.9%.

What about the residual activity [5] of the same compound?
Its residual activity is 98.9%.

And the residual activity [6]?
The residual activity was 90.8%.

What about the residual activity [7] of the same compound?
Its residual activity is 107%.

And the residual activity [8]?
The residual activity was 89.8%.

What about the residual activity [9] of the same compound?
Its residual activity is 102%.

And the residual activity [10]?
The residual activity was 88%.

And the residual activity [11]?
Its residual activity is 128%.

And the residual activity [12]?
Its residual activity is 96%.

And the residual activity [13]?
The residual activity was 94.3%.

What about the residual activity [14] of the same compound?
Its residual activity is 96.6%.

What about the residual activity [15] of the same compound?
Its residual activity is 98.5%.

And the residual activity [16]?
The residual activity was 94.3%.

What about the residual activity [17] of the same compound?
Its residual activity is 93.7%.

What about the residual activity [18] of the same compound?
Its residual activity is 91.2%.

What about the residual activity [19] of the same compound?
The residual activity was 94.7%.

What about the residual activity [20] of the same compound?
The residual activity was 76.5%.

What about the residual activity [21] of the same compound?
Its residual activity is 93.8%.

And the residual activity [22]?
Its residual activity is 79.4%.

What about the residual activity [23] of the same compound?
Its residual activity is 102%.

And the residual activity [24]?
Its residual activity is 96%.

What about the residual activity [25] of the same compound?
The residual activity was 99.2%.

What about the residual activity [26] of the same compound?
Its residual activity is 103%.

What about the residual activity [27] of the same compound?
Its residual activity is 102%.

What about the residual activity [28] of the same compound?
The residual activity was 103%.

And the residual activity [29]?
Its residual activity is 92.3%.

What about the residual activity [30] of the same compound?
The residual activity was 104%.

And the residual activity [31]?
Its residual activity is 109%.

What about the residual activity [32] of the same compound?
The residual activity was 93.4%.

What about the residual activity [33] of the same compound?
Its residual activity is 84.6%.

What about the residual activity [34] of the same compound?
Its residual activity is 104%.

What about the residual activity [35] of the same compound?
Its residual activity is 105%.

And the residual activity [36]?
The residual activity was 76.7%.

What about the residual activity [37] of the same compound?
Its residual activity is 101%.

What about the residual activity [38] of the same compound?
The residual activity was 108%.

What about the residual activity [39] of the same compound?
The residual activity was 105%.

And the residual activity [40]?
Its residual activity is 121%.

What about the residual activity [41] of the same compound?
The residual activity was 105%.

With `Cn1c2ccccc2c2c3c(c4c5ccccc5n(CCC#N)c4c21)CNC3=O` as the compound, how does the residual activity [1] read?
The residual activity was 85.4%.

And the residual activity [2]?
Its residual activity is 97.8%.

And the residual activity [3]?
Its residual activity is 21.3%.

And the residual activity [4]?
The residual activity was 73.6%.

What about the residual activity [5] of the same compound?
Its residual activity is 96.8%.

What about the residual activity [6] of the same compound?
Its residual activity is 38.7%.

And the residual activity [7]?
The residual activity was 44.5%.

What about the residual activity [8] of the same compound?
The residual activity was 104%.

What about the residual activity [9] of the same compound?
Its residual activity is 96.6%.

And the residual activity [10]?
The residual activity was 72.1%.

And the residual activity [11]?
Its residual activity is 40.5%.

What about the residual activity [12] of the same compound?
The residual activity was 1.18%.

What about the residual activity [13] of the same compound?
Its residual activity is 1.64%.

And the residual activity [14]?
The residual activity was 103%.

What about the residual activity [15] of the same compound?
The residual activity was 84%.

And the residual activity [16]?
The residual activity was 75.1%.

What about the residual activity [17] of the same compound?
The residual activity was 29.9%.

And the residual activity [18]?
The residual activity was 56.8%.

And the residual activity [19]?
Its residual activity is 83.7%.

And the residual activity [20]?
The residual activity was 86.5%.

And the residual activity [21]?
Its residual activity is 81.6%.

What about the residual activity [22] of the same compound?
The residual activity was 1.49%.

And the residual activity [23]?
The residual activity was 92.9%.

What about the residual activity [24] of the same compound?
The residual activity was 21.6%.

And the residual activity [25]?
Its residual activity is 87.2%.

What about the residual activity [26] of the same compound?
The residual activity was 58.5%.

What about the residual activity [27] of the same compound?
Its residual activity is 100%.

And the residual activity [28]?
Its residual activity is 5.93%.

And the residual activity [29]?
Its residual activity is 95%.

And the residual activity [30]?
The residual activity was 92.5%.

And the residual activity [31]?
The residual activity was 73.1%.

And the residual activity [32]?
The residual activity was 67.7%.

And the residual activity [33]?
The residual activity was 106%.

What about the residual activity [34] of the same compound?
The residual activity was 20.8%.

And the residual activity [35]?
The residual activity was 44.4%.

And the residual activity [36]?
The residual activity was 110%.

What about the residual activity [37] of the same compound?
The residual activity was 103%.

What about the residual activity [38] of the same compound?
The residual activity was 38.2%.

What about the residual activity [39] of the same compound?
The residual activity was 36.1%.

And the residual activity [40]?
Its residual activity is 66.2%.

What about the residual activity [41] of the same compound?
The residual activity was 107%.
